Data reported in PubChem BioAssay (NCI).
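Results reflect a 48-hour exposure of cells in 96-well plates to compound at five concentrations. Definition used: TGI = concentration required for complete inhibition of growth.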

How the values were obtained:
Experiment in all cases: NCI anticancer screen, dose series, 48 h
A498 renal = system: A498 renal
DU-145 prostate = system: DU-145 prostate
HS 578T breast = system: HS 578T breast
HT29 colon = system: HT29 colon
MCF7 breast = system: MCF7 breast
OVCAR-3 ovarian = system: OVCAR-3 ovarian
OVCAR-8 ovarian = system: OVCAR-8 ovarian
SK-OV-3 ovarian = system: SK-OV-3 ovarian
SR leukemia = system: SR leukemia
SW-620 colon = system: SW-620 colon

## CN(C)CC(C)(C)CN1c2ccccc2Sc2ccccc21
A498 renal
  TGI: 26.4 µM
DU-145 prostate
  TGI: 24.8 µM
HS 578T breast
  TGI: 28.5 µM
HT29 colon
  TGI: 22.6 µM
MCF7 breast
  TGI: 30 µM
OVCAR-3 ovarian
  TGI: 24.3 µM
OVCAR-8 ovarian
  TGI: 28.6 µM
SK-OV-3 ovarian
  TGI: 26 µM
SR leukemia
  TGI: 23.4 µM
SW-620 colon
  TGI: 28.3 µM

## O=C(/C=C/c1cccc(Br)c1)N1CCN(CCOC(c2ccccc2)c2ccccc2)CC1
A498 renal
  TGI: > 100 µM
DU-145 prostate
  TGI: > 100 µM
HS 578T breast
  TGI: > 100 µM
HT29 colon
  TGI: 81.5 µM
MCF7 breast
  TGI: > 100 µM
OVCAR-3 ovarian
  TGI: > 100 µM
OVCAR-8 ovarian
  TGI: > 100 µM
SK-OV-3 ovarian
  TGI: > 100 µM
SR leukemia
  TGI: 38.4 µM
SW-620 colon
  TGI: > 100 µM

## CC/C=C\C=C/C(=O)N/C=C/CCC
A498 renal
  TGI: > 100 µM
DU-145 prostate
  TGI: > 100 µM
HS 578T breast
  TGI: > 100 µM
HT29 colon
  TGI: > 100 µM
MCF7 breast
  TGI: > 100 µM
OVCAR-3 ovarian
  TGI: > 100 µM
OVCAR-8 ovarian
  TGI: > 100 µM
SK-OV-3 ovarian
  TGI: > 100 µM
SR leukemia
  TGI: > 100 µM
SW-620 colon
  TGI: > 100 µM

## CCCCCCCCCCCCc1ccsc1-c1ccc(-c2ccc(-c3sccc3CCCCCCCCCCCC)s2)s1
A498 renal
  TGI: > 100 µM
DU-145 prostate
  TGI: > 100 µM
HS 578T breast
  TGI: > 100 µM
HT29 colon
  TGI: > 100 µM
MCF7 breast
  TGI: > 100 µM
OVCAR-3 ovarian
  TGI: > 100 µM
OVCAR-8 ovarian
  TGI: > 100 µM
SK-OV-3 ovarian
  TGI: > 100 µM
SR leukemia
  TGI: > 100 µM
SW-620 colon
  TGI: > 100 µM

## COc1ccc(C=O)cc1OS(=O)(=O)C(F)(F)C(F)(F)C(F)(F)C(F)(F)F
A498 renal
  TGI: > 68.2 µM
DU-145 prostate
  TGI: > 100 µM
HS 578T breast
  TGI: 68.8 µM
HT29 colon
  TGI: > 90.5 µM
MCF7 breast
  TGI: > 100 µM
OVCAR-3 ovarian
  TGI: > 69.2 µM
OVCAR-8 ovarian
  TGI: > 100 µM
SK-OV-3 ovarian
  TGI: > 90.2 µM
SR leukemia
  TGI: > 24.4 µM
SW-620 colon
  TGI: > 87.4 µM

## S=C(S)NCCN1CCNCC1
A498 renal
  TGI: > 100 µM
DU-145 prostate
  TGI: > 100 µM
HS 578T breast
  TGI: > 100 µM
HT29 colon
  TGI: > 100 µM
MCF7 breast
  TGI: > 100 µM
OVCAR-3 ovarian
  TGI: 63.8 µM
OVCAR-8 ovarian
  TGI: 95.3 µM
SK-OV-3 ovarian
  TGI: > 100 µM
SR leukemia
  TGI: > 100 µM
SW-620 colon
  TGI: > 100 µM

## CON[N+]([O-])=NC(C)C
A498 renal
  TGI: > 100 µM
DU-145 prostate
  TGI: > 100 µM
HS 578T breast
  TGI: > 100 µM
HT29 colon
  TGI: > 100 µM
MCF7 breast
  TGI: > 100 µM
OVCAR-3 ovarian
  TGI: > 100 µM
OVCAR-8 ovarian
  TGI: > 100 µM
SK-OV-3 ovarian
  TGI: > 100 µM
SR leukemia
  TGI: > 100 µM
SW-620 colon
  TGI: > 100 µM

## CN1CCc2c(sc3ncn(Nc4ccc(F)cc4)c(=N)c23)C1
A498 renal
  TGI: > 100 µM
DU-145 prostate
  TGI: > 100 µM
HS 578T breast
  TGI: > 100 µM
HT29 colon
  TGI: > 100 µM
MCF7 breast
  TGI: > 100 µM
OVCAR-3 ovarian
  TGI: > 100 µM
OVCAR-8 ovarian
  TGI: > 100 µM
SK-OV-3 ovarian
  TGI: > 100 µM
SR leukemia
  TGI: > 100 µM
SW-620 colon
  TGI: > 100 µM

## O=C(CCCn1ccnc1[N+](=O)[O-])NCCn1cnc([N+](=O)[O-])n1
A498 renal
  TGI: > 100 µM
DU-145 prostate
  TGI: > 100 µM
HS 578T breast
  TGI: > 100 µM
HT29 colon
  TGI: > 100 µM
MCF7 breast
  TGI: > 100 µM
OVCAR-3 ovarian
  TGI: > 100 µM
OVCAR-8 ovarian
  TGI: > 100 µM
SK-OV-3 ovarian
  TGI: > 100 µM
SR leukemia
  TGI: > 100 µM
SW-620 colon
  TGI: > 100 µM

## NC1NCCC(=O)N1CCc1c[nH]c2ccccc12 (stereo not given)
A498 renal
  TGI: 27.9 µM
DU-145 prostate
  TGI: 63 µM
HS 578T breast
  TGI: 55.2 µM
HT29 colon
  TGI: 82.9 µM
MCF7 breast
  TGI: 29.2 µM
OVCAR-3 ovarian
  TGI: 48.4 µM
OVCAR-8 ovarian
  TGI: 89.1 µM
SK-OV-3 ovarian
  TGI: > 100 µM
SR leukemia
  TGI: 57.7 µM
SW-620 colon
  TGI: 42 µM

## O=C1CN(c2ccccc2)C(=O)CN1NCNN1CC(=O)N(c2ccccc2)CC1=O
A498 renal
  TGI: > 100 µM
DU-145 prostate
  TGI: > 100 µM
HS 578T breast
  TGI: > 100 µM
HT29 colon
  TGI: > 100 µM
MCF7 breast
  TGI: > 100 µM
OVCAR-3 ovarian
  TGI: > 100 µM
OVCAR-8 ovarian
  TGI: > 100 µM
SK-OV-3 ovarian
  TGI: > 100 µM
SR leukemia
  TGI: > 100 µM
SW-620 colon
  TGI: > 100 µM

## COC(=O)[C@H](Cc1ccccc1)NC(=O)N(CCNC(=O)OC(C)(C)C)c1ccccc1
A498 renal
  TGI: > 100 µM
DU-145 prostate
  TGI: > 100 µM
HS 578T breast
  TGI: > 100 µM
HT29 colon
  TGI: > 100 µM
MCF7 breast
  TGI: > 100 µM
OVCAR-3 ovarian
  TGI: > 100 µM
OVCAR-8 ovarian
  TGI: > 100 µM
SK-OV-3 ovarian
  TGI: > 100 µM
SR leukemia
  TGI: > 100 µM
SW-620 colon
  TGI: > 100 µM

## CN(C)NC1=NS(=O)(=O)c2cc3c(=O)n(C)[nH]c3cc2S1
A498 renal
  TGI: > 10 µM
DU-145 prostate
  TGI: > 10 µM
HS 578T breast
  TGI: > 10 µM
HT29 colon
  TGI: > 10 µM
MCF7 breast
  TGI: > 10 µM
OVCAR-3 ovarian
  TGI: > 10 µM
OVCAR-8 ovarian
  TGI: > 10 µM
SK-OV-3 ovarian
  TGI: > 10 µM
SR leukemia
  TGI: > 10 µM
SW-620 colon
  TGI: > 10 µM
